From patent US11214803B2, “Modulators of YAP1 expression” (Ionis Pharmaceuticals, Inc., priority 2019, dated 2022) come the findings set out here.

Strand notation (5' to 3'): a small letter for the sugar, then the base; units joined by * are phosphorothioate-linked, units joined directly phosphodiester-linked; [ ] holds rarer units or linkages, { } end groups; capitals alone tell only the bases. k = constrained ethyl (cEt); [5mC] = 5-methylcytosine; d = 2'-deoxy (DNA)

One series has as its system Yap1 mRNA. The series is described as follows: Antisense inhibition of human Yap1 in A-431 cells by cEt gapmers, single dose (Example 4, RTS4814). Format: cell-based. To be noted: Table 14; A-431 cells, 5,000 cells per well, free uptake, 2,000 nM, approximately 48 hours; RTS4814; normalized to RIBOGREEN; Yap1 mRNA relative to untreated control; * = targets amplicon region of primer probe set. How it is done:
Modified oligonucleotides were designed to target a Yap1 nucleic acid and were tested for their effect on Yap1 mRNA level in vitro. The modified oligonucleotides were tested in a series of experiments that had similar culture conditions. Cultured A-431 cells at a density of 5,000 cells per well were treated using free uptake with 2,000 nM of modified oligonucleotide. After a treatment period of approximately 48 hours, RNA was isolated from the cells and Yap1 mRNA levels were measured by quantitative real-time RTPCR. Human primer probe set RTS4814 was used to measure mRNA levels. Yap1 mRNA levels were normalized to total RNA content, as measured by RIBOGREEN®. Results are presented in the tables below as percent control of the amount of Yap1 mRNA relative to untreated control cells (% UTC). The modified oligonucleotides with percent control values marked with an asterisk (*) target the amplicon region of the primer probe set. Additional assays may be used to measure the potency and efficacy of the modified oligonucleotides targeting the amplicon region.
The newly designed modified oligonucleotides in the Tables below were designed as 3-10-3 cEt gapmers. The gapmers are 16 nucleosides in length, wherein the central gap segment comprises of ten 2′-deoxynucleosides and is flanked by wing segments on the 5′ direction and the 3′ direction comprising three nucleosides each. Each nucleoside in the 5′ wing segment and each nucleoside in the 3′ wing segment has a cEt sugar modification. The internucleoside linkages throughout each gapmer are phosphorothioate (P═S) linkages. All cytosine residues throughout each gapmer are 5-methylcytosines.
“Start site” indicates the 5′-most nucleoside to which the gapmer is targeted in the human gene sequence. “Stop site” indicates the 3′-most nucleoside to which the gapmer is targeted human gene sequence. […] Activity of the modified oligonucleotide may be defined in a different experiment.
In the case of “1074528 (k[5mC]*kT*kG*d[5mC]*d[5mC]*d[5mC]*d[5mC]*dA*dA*d[5mC]*d[5mC]*dA*dG*kA*kT*kT; antisense) [Compound 1074528]”, the “YAP1 (% UTC)” value worked out at 25 % UTC.
As for “1074560 (antisense k[5mC]*k[5mC]*kA*dA*dT*d[5mC]*dG*dA*dG*dA*d[5mC]*dT*dT*kA*kA*kA) [Compound 1074560]”, the “YAP1 (% UTC)” value is reported as 3 % UTC.
Regarding “1074592 (antisense kG*kG*kA*dG*d[5mC]*dA*dA*dG*dT*d[5mC]*dT*dT*dG*kT*kA*kA) [Compound 1074592]”, the “YAP1 (% UTC)” value was 23 % UTC.
In the case of “1074624 (antisense kG*kG*k[5mC]*dT*dT*dA*dT*dT*d[5mC]*dT*dA*dG*dA*kA*kA*k[5mC]) [Compound 1074624]”, the “YAP1 (% UTC)” value is given as 65 % UTC.
Turning to “1074656 (antisense kG*kA*k[5mC]*dT*dT*dA*dA*dT*dT*d[5mC]*dA*dA*dG*kA*kT*kT) [Compound 1074656]”, the “YAP1 (% UTC)” value is 31 % UTC.
Same read-out and setting: next, “1074688 (antisense kT*k[5mC]*k[5mC]*d[5mC]*d[5mC]*d[5mC]*dT*dA*dA*dG*d[5mC]*dT*dA*kA*kA*kG) [Compound 1074688]”: 83 % UTC; “1074720 (antisense kG*kA*kA*dG*dA*dT*d[5mC]*dT*d[5mC]*d[5mC]*dA*dT*dA*kT*kT*k[5mC]) [Compound 1074720]”: 58 % UTC.

The series is the same for the next values; noted with them: Table 15; A-431 cells, 5,000 cells per well, free uptake, 2,000 nM, approximately 48 hours; RTS4814; normalized to RIBOGREEN; Yap1 mRNA relative to untreated control; * = targets amplicon region of primer probe set.
“1074497 (k[5mC]*kA*kA*dT*dA*dA*d[5mC]*d[5mC]*dA*dT*d[5mC]*d[5mC]*d[5mC]*kA*kA*kG; antisense) [Compound 1074497]”: the “YAP1 (% UTC)” value was determined as 26 % UTC.
Regarding “1074529 (kG*k[5mC]*kA*dG*dA*d[5mC]*dT*dG*d[5mC]*d[5mC]*d[5mC]*d[5mC]*dA*kA*k[5mC]*k[5mC]; antisense) [Compound 1074529]”, the “YAP1 (% UTC)” value was determined as 50 % UTC.
Take “1074561 (antisense kA*kA*kT*dT*d[5mC]*d[5mC]*dA*dA*dT*d[5mC]*dG*dA*dG*kA*k[5mC]*kT) [Compound 1074561]”: the “YAP1 (% UTC)” value is given as 10 % UTC.
On to “1074593 (antisense kA*kG*kG*dA*dG*d[5mC]*dA*dA*dG*dT*d[5mC]*dT*dT*kG*kT*kA) [Compound 1074593]”, for which the “YAP1 (% UTC)” value is 6 % UTC.
“1074625 (antisense kA*kT*kA*dA*dG*dG*dG*d[5mC]*dT*dT*dA*dT*dT*k[5mC]*kT*kA) [Compound 1074625]”: the “YAP1 (% UTC)” value was determined as 42 % UTC.
For “1074657 (antisense kT*k[5mC]*k[5mC]*d[5mC]*d[5mC]*d[5mC]*d[5mC]*dA*dG*dA*d[5mC]*dT*dT*kA*kA*kT) [Compound 1074657]”, the “YAP1 (% UTC)” value is listed as 59 % UTC.
Same read-out and setting: next, “1074689 (antisense k[5mC]*kT*k[5mC]*d[5mC]*d[5mC]*d[5mC]*d[5mC]*dT*dA*dA*dG*d[5mC]*dT*kA*kA*kA) [Compound 1074689]”: 70 % UTC.
Regarding “1074721 (antisense kG*kG*kA*dA*dG*dA*dT*d[5mC]*dT*d[5mC]*d[5mC]*dA*dT*kA*kT*kT) [Compound 1074721]”, the “YAP1 (% UTC)” value turned out to be 43 % UTC.

The series is the same for the next values; noted with them: Table 16; A-431 cells, 5,000 cells per well, free uptake, 2,000 nM, approximately 48 hours; RTS4814; normalized to RIBOGREEN; Yap1 mRNA relative to untreated control cells.
Consider “1074498 (kA*k[5mC]*kA*dA*dT*dA*dA*d[5mC]*d[5mC]*dA*dT*d[5mC]*d[5mC]*k[5mC]*kA*kA; antisense) [Compound 1074498]”, for which the “YAP1 (% UTC)” value was found to be 17 % UTC.
Same read-out and setting: the result for “1074530 (k[5mC]*kT*kA*dA*dA*d[5mC]*dT*dA*d[5mC]*dT*dT*d[5mC]*dA*kA*kA*k[5mC]; antisense) [Compound 1074530]” reads 88 % UTC; that for “1074562 (antisense kG*kA*kA*dT*dT*d[5mC]*d[5mC]*dA*dA*dT*d[5mC]*dG*dA*kG*kA*k[5mC]) [Compound 1074562]”, 30 % UTC.
As for “1074594 (antisense kT*kA*kG*dG*dA*dG*d[5mC]*dA*dA*dG*dT*d[5mC]*dT*kT*kG*kT) [Compound 1074594]”, the “YAP1 (% UTC)” value came to 6 % UTC.
Turning to “1074626 (antisense k[5mC]*kT*kG*dT*dT*dA*dT*dG*dA*dA*d[5mC]*d[5mC]*d[5mC]*kT*kT*kG) [Compound 1074626]”, the “YAP1 (% UTC)” value was 5 % UTC.
Turning to “1074658 (antisense kG*kG*k[5mC]*d[5mC]*dA*dT*dT*dT*d[5mC]*d[5mC]*d[5mC]*d[5mC]*d[5mC]*k[5mC]*kA*kG) [Compound 1074658]”, the “YAP1 (% UTC)” value came to 89 % UTC.
The same measure, in the same setting: next, “1074690 (antisense k[5mC]*k[5mC]*kT*d[5mC]*d[5mC]*d[5mC]*d[5mC]*d[5mC]*dT*dA*dA*dG*d[5mC]*kT*kA*kA) [Compound 1074690]”: 81 % UTC.

The same series, now with this note: Table 17; A-431 cells, 5,000 cells per well, free uptake, 2,000 nM, approximately 48 hours; RTS4814; normalized to RIBOGREEN; Yap1 mRNA relative to untreated control cells.
As to “1074499 (kT*kA*k[5mC]*dA*dA*dT*dA*dA*d[5mC]*d[5mC]*dA*dT*d[5mC]*k[5mC]*k[5mC]*kA; antisense) [Compound 1074499]”, the “YAP1 (% UTC)” value is 10 % UTC.
Regarding “1074531 (k[5mC]*kA*k[5mC]*dT*dA*dA*dA*d[5mC]*dT*dA*d[5mC]*dT*dT*k[5mC]*kA*kA; antisense) [Compound 1074531]”, the “YAP1 (% UTC)” value was determined as 73 % UTC.
Take “1074563 (antisense kT*kG*kA*dA*dT*dT*d[5mC]*d[5mC]*dA*dA*dT*d[5mC]*dG*kA*kG*kA) [Compound 1074563]”: the “YAP1 (% UTC)” value was determined as 4 % UTC.
On to “1074595 (antisense kT*kA*kG*dA*dA*dG*dT*dA*dG*dG*dA*dG*d[5mC]*kA*kA*kG) [Compound 1074595]”, for which the “YAP1 (% UTC)” value is 4 % UTC.
Turning to “1074627 (antisense k[5mC]*k[5mC]*kT*dG*dT*dT*dA*dT*dG*dA*dA*d[5mC]*d[5mC]*k[5mC]*kT*kT) [Compound 1074627]”, the “YAP1 (% UTC)” value came to 3 % UTC.
Same read-out and setting: the result for “1074659 (antisense k[5mC]*kT*kA*dA*dA*dA*d[5mC]*dT*d[5mC]*d[5mC]*dA*dT*d[5mC]*kT*kG*k[5mC]) [Compound 1074659]” reads 12 % UTC; that for “1074691 (antisense k[5mC]*k[5mC]*k[5mC]*dT*d[5mC]*d[5mC]*d[5mC]*d[5mC]*d[5mC]*dT*dA*dA*dG*k[5mC]*kT*kA) [Compound 1074691]”, 76 % UTC.

Still in this series, the particulars now being: Yap1 mRNA remaining as percent of untreated control; 3-10-3 cEt gapmers; A-431 cells; Table 36.
Turning to “1074518 (kA*kA*kA*dT*dG*d[5mC]*dA*dT*dA*d[5mC]*dA*dA*dA*kG*k[5mC]*kG; antisense) [compound 1074518]”, the “YAP1 (% UTC)” value is given as 13 % UTC.
Same read-out and setting: the result for “1074550 (DNA kA*kT*kA*dT*d[5mC]*dT*dA*d[5mC]*d[5mC]*dG*dT*dA*dT*kG*k[5mC]*k[5mC]; antisense) [compound 1074550]” reads 23 % UTC; that for “1074582 (DNA kT*kA*kA*dA*d[5mC]*d[5mC]*dA*d[5mC]*dT*dA*dT*dA*dA*kA*kG*k[5mC]; antisense) [compound 1074582]”, 18 % UTC.
“1074614 (DNA kT*k[5mC]*kA*dT*dA*dG*d[5mC]*dT*dT*dA*dT*dA*dT*kT*kG*kA; antisense) [compound 1074614]”: the “YAP1 (% UTC)” value amounted to 49 % UTC.
Consider “1074646 (antisense kA*kA*kA*dT*dT*dG*dA*dA*dG*dG*dG*d[5mC]*d[5mC]*kA*kA*kA) [compound 1074646]”, for which the “YAP1 (% UTC)” value is listed as 39 % UTC.
As to “1074710 (antisense k[5mC]*kT*k[5mC]*dT*dA*dG*dA*dA*d[5mC]*dA*dG*d[5mC]*dT*kG*k[5mC]*k[5mC]) [compound 1074710]”, the “YAP1 (% UTC)” value is 42 % UTC.

The same series, now with this note: Yap1 mRNA remaining as percent of untreated control; 3-10-3 cEt gapmers; A-431 cells; Table 37.
As for “1074519 (kA*k[5mC]*kT*dA*d[5mC]*dT*dA*dG*dT*d[5mC]*dA*dT*dG*kT*kA*kT; antisense) [compound 1074519]”, the “YAP1 (% UTC)” value is recorded as 45 % UTC.
Still for that read-out and setting: next, “1074551 (DNA kA*kA*kT*dA*dT*d[5mC]*dT*dA*d[5mC]*d[5mC]*dG*dT*dA*kT*kG*k[5mC]; antisense) [compound 1074551]”: 58 % UTC; “1074583 (DNA kG*kT*kA*dA*dA*d[5mC]*d[5mC]*dA*d[5mC]*dT*dA*dT*dA*kA*kA*kG; antisense) [compound 1074583]”: 30 % UTC.
On the same count and under the same terms, next, “1074615 (DNA kT*kT*k[5mC]*dA*dT*dA*dG*d[5mC]*dT*dT*dA*dT*dA*kT*kT*kG; antisense) [compound 1074615]”: 8 % UTC.
In the case of “1074647 (antisense k[5mC]*kA*kA*dA*dT*dT*dG*dA*dA*dG*dG*dG*d[5mC]*k[5mC]*kA*kA) [compound 1074647]”, the “YAP1 (% UTC)” value turned out to be 27 % UTC.
The same measure, in the same setting: the result for “1074711 (antisense kA*k[5mC]*kT*d[5mC]*dT*dA*dG*dA*dA*d[5mC]*dA*dG*d[5mC]*kT*kG*k[5mC]) [compound 1074711]” reads 28 % UTC.
